The values that follow are results of earlier work, collected in US20230136789A1, “POLYMER IMPLANTS” (Foundry Therapeutics, Inc., priority 2020, published 2023).

With `CCCCN1CCCCC1C(=O)Nc1c(C)cccc1C` (stereo not shown) [bupivacaine], the pKa entry is given as “about 8.0”.
